In US5846731A, “Peralkylated oligopeptide mixtures” (Torry Pines Institute for Molecular Studies, priority 1993, dated 1998):
Values after ≈ are worked out from the molar mass of the structure shown.

System: Staphylococcus aureus (ATCC 29213)
Assay: Antimicrobial activity against S. aureus (growth inhibition, OD 620 nm)
Assay type: cell-based
Settings: for IC50: individual permethylated peptides; for MIC: minimum concentration to inhibit about 100 percent bacterial growth
Experimental: The two types of libraries of positional libraries of Example 5 were also scanned against Staphylococcus aureus a Gram-positive bacterium. Concentrations of those 5× permethylated peptide mixtures that inhibited cellular growth by 50 percent (IC50) values were determined.
The permethylated amino acid and peptides were screened against S. aureus, as described before and IC50 and MIC (minimum inhibitory concentration; minimum concentration needed to inhibit about 100 percent bacterial growth) values were determined.
Staphylococcus aureus (ATCC 29213) were grown overnight (about 18 hours) at 37° C. in Mueller-Hinton (MH) broth. This culture was reinoculated and incubated at 37° C. to reach the exponential phase of bacterial growth; i.e., a final bacterial suspension containing about 10^5 to 5×10^5 colony-forming units (CFU)/ml. The concentration of cells was established by plating 100 μl of different dilutions of the culture solution (e.g., 10^-2, 10^-3 and 10^-4) onto solid agar plates. Following an overnight (about 18 hours) incubation at 37° C., the CFU thus formed were counted on each agar plate.
96-Well tissue culture plates were utilized, with eight wells per plate containing only medium as control blanks, whereas eight other wells contained medium plus cells as a positive growth control. These controls were used to detect possible medium contamination and to provide a measure of uninhibited growth of the microorganisms.
For determination of IC50 values (concentrations necessary to inhibit 50 percent growth of bacteria), peralkylated oligopeptide sets were added to the bacterial suspension at concentrations noted before. The plates were incubated overnight (about 18 hours) at 37° C., and the optical density (OD) determined at 620 nm after different times of incubation. IC50 Values were then determined from the OD data.

[1] = Staphylococcus aureus, ATCC29213, Assay 1
[2] = Staphylococcus aureus, ATCC29213, Assay 2

## Ac-FFFFFF-NH2 [N--Ac--hexaPhe, N-acetyl hexaPhe amide]
Assay 1
  IC50: > 500000 nM
  MIC: > 500 µM
Assay 2
  IC50: > 500000 nM
  MIC: > 500 µM

## Cc1onc(-c2ccccc2)c1C(=O)N[C@@H]1C(=O)N2[C@@H]1SC(C)(C)[C@@H]2C(=O)O [Oxacillin, oxacillin]
Assay 2
  MIC: 0.125 µM (≈ 0.0502 µg/mL)
[1]
  IC50: 42 nM
  MIC: 0.125 µM (≈ 0.0502 µg/mL)
[2]
  IC50: 370 nM

## CC[C@H]1OC(=O)[C@H](C)[C@@H](O[C@H]2C[C@@](C)(OC)[C@@H](O)[C@H](C)O2)[C@H](C)[C@@H](O[C@@H]2O[C@H](C)C[C@H](N(C)C)[C@H]2O)[C@](C)(O)C[C@@H](C)C(=O)[C@H](C)[C@@H](O)[C@]1(C)O [Erythromycin, erythromycin]
Assay 2
  MIC: 0.5 µM (≈ 0.367 µg/mL)
[1]
  IC50: 184 nM
  MIC: 0.5 µM (≈ 0.367 µg/mL)
[2]
  IC50: 134 nM

## CNC(=O)[C@H](Cc1ccccc1)[N+](C)(C)C [PerA--F, permethylated Phe N-methylamide]
Assay 1
  MIC: > 500 µM
Assay 2
  MIC: > 500 µM
